Experimental findings from patent US20160058738A1, “PHARMACEUTICAL COMPOSITION FOR PREVENTING OR TREATING OVARY GRANULOSA CELL TUMORS CONTAINING GLYCOGEN SYNTHASE KINASE-3 BETA INHIBITOR AS ACTIVE INGREDIENT, AND FUNCTIONAL HEALTH FOOD COMPOSITION” (CHUNG-ANG UNIVERSITY INDUSTRY-ACADEMIC COOPERATION …, priority 2013, published 2016) are described below.

Structures are written as SMILES.

Experiment [1] concerns phosphorylation of the FOXL2 S33 residue. Put plainly: Western blotting of the phosphorylation of the FOXL2 S33 residue after kinase inhibitor treatment. It counts as cell-based, human. The conditions noted are these: 10 μM inhibitor, KGN cells overexpressing FOXL2 WT. As for the experimental part: The cultured cells were harvested, and a protein was extracted from the cells using a Nonidet P-40 (NP-40) solution. For quantification of the extracted protein, a Bicinchoninic acid (BCA)™ protein assay was performed. The quantified protein was transferred to a polyvinylidene fluoride (PVDF) membrane by SDS-PAGE electrophoresis, and incubated with an antibody for each protein to be detected. Afterward, the proteins were detected using secondary antibodies and a ChemDoc system.
While the FOXL2 WT was overexpressed in the KGN cells, the cells were treated with 10 μM of the inhibitor of each kinase, cultured for 18 hours and sampled, and then a change in phosphorylation was measured by performing western blotting. Here, the change in phosphorylation was measured using an antibody specifically binding to a peptide consisting of an amino acid of SEQ. ID.
To confirm whether an inhibitory effect of GSK3beta on the FOXL2 S33 residue is a GSK3beta-specific effect, cells in which FOXL2 WT was overexpressed were treated with 10 μM each of AR-A014418 and TWS1119, which are two different GSK3beta inhibitors, sampled, and analyzed by western blotting. Here, AR-A014418 contains a compound represented by Formula 2.
(In general: In western blotting, separated proteins are transferred to a membrane and probed.)

The test system of experiment [2] is KGN cells stably expressing FOXL2. In words: Efficacy on tumor induced by KGN cells in nude mice. It counts as in vivo, BALB/c-nu mice. The note with it: 2 mg/kg injected directly into tumor-induced region 10 times for two weeks, starting three weeks after cell injection. An excerpt: 6-week-old mature male BALB/c-nu mice were purchased from Central Laboratory Animal, Inc., and allowed for one week to be adapted to environments of the breeding facility and the laboratory in the Chung-Ang University Laboratory Animal Research Center to ensure that the mice had no general symptoms, prior to being used for the experiment. The animals were housed at a density of five mice per polycarbonate cage, and solid food for laboratory animals and water were freely provided. The environments for the breeding laboratory including a temperature, humidity, a ventilation cycle, a light/dark cycle, and illuminance were constantly maintained, and all the experiments were conducted in accordance with the regulation of the Chung-Ang University Animal Research Ethics Committee.
3×10^7 of KGN cells stably expressing FOXL2 were subcutaneously injected into each mouse to induce a tumor. Three weeks after the injection, the GSK3beta inhibitor (AR-A014418) was directly injected into a tumor-induced region at 2 mg/kg 10 times for two weeks and then a tumor size was measured, and the result is shown in FIG. 14.

The next experiment has as its system FOXL2 protein. Put plainly: Experiment for protein stability (cyclohexamide chase, western blotting). The experiment is classed as cell-based, human. The note with it: FOXL2-overexpressing cells, then 10 μg cyclohexamide, sampled at 0, 6, 12, 24 hours. Here is the method:
The cultured cells were harvested, and a protein was extracted from the cells using a Nonidet P-40 (NP-40) solution. For quantification of the extracted protein, a Bicinchoninic acid (BCA)™ protein assay was performed. The quantified protein was transferred to a polyvinylidene fluoride (PVDF) membrane by SDS-PAGE electrophoresis, and incubated with an antibody for each protein to be detected. Afterward, the proteins were detected using secondary antibodies and a ChemDoc system. To confirm whether the effect of decreasing the cell viability by inducing the activity of a specific promoter such as TNFR1, FAS, Caspase8 and p21 induces regulation of FOXL2 protein stability by the phosphorylation of the FOXL2 S33 residue, cells in which a FOXL2 protein was overexpressed were treated with a GSK3beta inhibitor (SB 216763) and expressed, treated with 10 μg of cyclohexamide which is a protein synthesis inhibitor, and then sampled at 0, 6, 12, and 24 hours to perform western blotting, and the result is shown in FIG. 12.

Experiment [3] has as its system cells in which the FOXL2 protein was overexpressed. Put plainly: Experiment for cell growth rate. The experiment is classed as cell-based, human. The conditions noted are these: for cell growth rate of the C134W mutant: cells overexpressing FOXL2 C134W mutant. Here is the method:
After the cells in which the FOXL2 protein was overexpressed were treated with a GSK3beta inhibitor (AR-A014418), a cell growth rate according to time was measured, and the result is shown in FIG. 13.

Consider `Nc1cccc(-c2cc3c(Oc4cccc(O)c4)ncnc3[nH]2)c1` [TWS1119], for which the “phosphorylation of the FOXL2 S33 residue” value in experiment [1] was “reduced”.
As for `Cn1cc(C2=C(c3ccc(Cl)cc3Cl)C(=O)NC2=O)c2ccccc21` [SB 216763, 3-(2,4-Dichlorophenyl)-4-(1-methyl-1H-indol-3-yl)-1H-pyrrole-2,5-dione], the “size of the tumor induced in the ovarian GCT cells” value in experiment [2] is “decreased”. Besides, the “phosphorylation of the FOXL2 S33 residue” value in experiment [1] was “reduced”; in experiment [1] (listed as Formula 1), “decreased”. In the experiment with FOXL2 protein, the FOXL2 protein stability entry is reported as “increased”. Further, in experiment [3], the “cell growth rate of the C134W mutant” value is recorded as “decreased”.
In the case of `COc1ccc(CNC(=O)Nc2ncc([N+](=O)[O-])s2)cc1` [AR-A014418, N-[(4-Methoxyphenyl)Methyl]-N′-(5-nitro-thiazol-2-yl)urea], the “size of the tumor induced in the ovarian GCT cells” value is reported as “remarkably decreased” in experiment [2] and “decreased” in experiment [2] (listed as Formula 2). The “phosphorylation of the FOXL2 S33 residue” value is “reduced” in experiment [1] and “decreased” in experiment [1] (listed as Formula 2). Further, the cell growth rate entry in experiment [3] (FOXL2-overexpressing cells, growth rate according to time) is “decrease”. For the same compound, the figures for the “cell growth rate of the C134W mutant” value in experiment [3] and in experiment [3] (listed as Formula 2) were “remarkably decreased” and “decreased”, respectively.
